Values quoted from earlier work, collected in patent US9180195B2, “Controlled release gels” (Nano Fiber Matrices B.V., priority 2005, dated 2015).

Conditions: for time to complete release from LMWG gel: from gels of N,N′-dibenzoyl-L-cystine (DBC)

Nc1cccc2cccnc12 [AQ, 8-aminoquinoline]
time to complete release from LMWG gel: ~1 h

Oc1ccc2ccccc2n1 [HQ, 2-hydroxyquinoline]
initial release rate relative to AQ (from gels of DBC): approximately seven | time to complete release from LMWG gel: approximately 15 min
